In patent US9657057B2, “Dipeptide and tripeptide epoxy ketone protease inhibitors” (Onyx Therapeutics, Inc., priority 2013, dated 2017):
Converted amounts (≈) assume the structure as drawn.

Columns and labels:
[1] = target: T1, β5 (Homo sapiens, UniProt P20618+P28074); assay: ProCISE proteasome subunit assay, β5; format: biochemical; details: MOLT4 lysate Hu 1 h
T1 construct: endogenous in cells; host or cells: MOLT-4
Description: (§1) This assay was used to assess the inhibitory activity against each of LMP2, LMP7, MECL1, β1, β2, and β5. Briefly, test compounds were serially diluted in DMSO at 100× concentration, then diluted to 10× in aqueous hypotonic lysis buffer. Lysate from the human acute lymphoblastic leukemia cell line, MOLT-4, was treated for 1 hour at 25° C. with compound at a final 1× concentration. […] Following this, lysate was denatured in guanidine hydrochloride, and subunits bound to probe were isolated with streptavidin-conjugated sepharose beads. Individual subunits were probed with subunit-specific primary antibodies, followed by HRP-conjugated secondary antibodies. A chemiluminescent substrate was used to generate signal associated with HRP binding, which was detected on a plate reader. Luminescent signal was normalized to protein content, then, percent activity calculated relative to DMSO-treated controls to generate IC50 curves.

[2] = target: c20S (constitutive 20S proteasome) (Homo sapiens, UniProt P20618+P28074); assay: 20S proteasome assay, chymotrypsin-like activity (LLVY), c20S; format: biochemical; details: LLVY c20S Hu 1 h CONT: IC50 (nM), succinyl-Leu-Leu-Val-Tyr-AMC
Text: (§2) Assay buffer consisted of TE buffer [20 mmol/L Tris (pH 8.0), 0.5 mmol/L EDTA] with (20S) or without (cell lysate) 0.03% SDS. Reactions were initiated by enzyme or lysate addition and monitored for AMC product formation at 27jC with a plate-based spectofluorometer (Tecan).

[3] = target: i20S (20S immunoproteasome) (Homo sapiens, UniProt P20618+P28062); assay: 20S proteasome assay, chymotrypsin-like activity (LLVY), i20S; format: biochemical; details: LLVY i20S Hu 1 h CONT: IC50 (nM), succinyl-Leu-Leu-Val-Tyr-AMC
Text: as §2

[4] = target: T2, LMP7 (Homo sapiens, UniProt P20618+P28062); assay: ProCISE proteasome subunit assay, LMP7; format: biochemical; details: MOLT4 lysate Hu 1 h
T2 construct: endogenous in cells; host or cells: MOLT-4
Description: as §1

[5] = Solubility pH 7; format: physicochemical; details: pH 7, aqueous buffer

IC50 [1] | IC50 [2] | IC50 [3] | IC50 [4] | solubility [5] | SMILES
180 nM | 29 nM | 6.1 nM | 34.4 nM | – | COc1ccc(C[C@H](NC(=O)[C@H](C)NC(=O)C(C)(F)F)C(=O)N[C@@H](Cc2ccccc2)C(=O)[C@@]2(C)CO2)cc1 [Compound C-2006]
478 nM | 432 nM | 118 nM | 211 nM | 728 µg/mL (≈ 1420 µM) | COc1ccc(C[C@H](NC(=O)[C@H](CO)NC(C)=O)C(=O)N[C@@H](Cc2ccccc2)C(=O)[C@@]2(C)CO2)cc1 [Compound C-2007, (S)-2-acetamido-3-hydroxy-N—((S)-3-(4-methoxyphenyl)-1-(((S)-1-((R)-2-methyloxiran-2-yl)-1-oxo-3-phenylpropan-2-yl)amino)-1-oxopropan-2-yl)propanamide]
342 nM | 68.6 nM | 13.5 nM | 97.1 nM | – | COc1ccc(C[C@H](NC(=O)[C@H](C)NC(=O)C(F)(F)F)C(=O)N[C@@H](Cc2ccccc2)C(=O)[C@@]2(C)CO2)cc1 [Compound C-2011, (S)-3-(4-Methoxyphenyl)-N—((S)-1-((R)-2-methyloxiran-2-yl)-1-oxo-3-phenylpropan-2-yl)-2-((S)-2-(2,2,2-trifluoroacetamido)propanamido)propanamide]
359 nM | 117 nM | 40.2 nM | 66.7 nM | 725 µg/mL (≈ 1270 µM) | COCOCCC(=O)N[C@@H](C)C(=O)N[C@@H](Cc1ccc(OC)cc1)C(=O)N[C@@H](Cc1ccccc1)C(=O)[C@@]1(C)CO1 [Compound C-2013, (S)-2-((S)-2-(3-(methoxymethoxy)propanamido)propanamido)-3-(4-methoxyphenyl)-N—((S)-1-((R)-2-methyloxiran-2-yl)-1-oxo-3-phenylpropan-2-yl)propanamide]
372 nM | 45.7 nM | 16.6 nM | 56.4 nM | – | COc1ccc(C[C@H](NC(=O)[C@H](C)NC(=O)Cc2cc(C)no2)C(=O)N[C@@H](CC2CCCC2)C(=O)[C@@]2(C)CO2)cc1 [Compound C-2014, (S)—N—((S)-3-cyclopentyl-1-((R)-2-methyloxiran-2-yl)-1-oxopropan-2-yl)-3-(4-methoxyphenyl)-2-((S)-2-(2-(3-methylisoxazol-5-yl)acetamido)propanamido)propanamide]
30400 nM | 18600 nM | 2920 nM | 3060 nM | 169 µg/mL (≈ 298 µM) | COc1ccc(C[C@H](NC(=O)[C@@H](C)NC(=O)Cc2cc(C)no2)C(=O)N[C@@H](CC2CCCC2)C(=O)[C@@]2(C)CO2)cc1 [Compound C-2015, (S)—N—((S)-3-cyclopentyl-1-((R)-2-methyloxiran-2-yl)-1-oxopropan-2-yl)-3-(4-methoxyphenyl)-2-((R)-2-(2-(3-methylisoxazol-5-yl)acetamido)propanamido)propanamide]
34900 nM | 12800 nM | 570 nM | 1180 nM | 129 µg/mL (≈ 243 µM) | COCCC(=O)N[C@H](C)C(=O)N[C@@H](Cc1ccc(OC)cc1)C(=O)N[C@@H](CC1CCCC1)C(=O)[C@@]1(C)CO1 [Compound C-2018, (S)—N—((S)-3-cyclopentyl-1-((R)-2-methyloxiran-2-yl)-1-oxopropan-2-yl)-3-(4-methoxyphenyl)-2-((R)-2-(3-methoxypropanamido)propanamido)propanamide]
30800 nM | 99000 nM | 1220 nM | 1890 nM | 103 µg/mL (≈ 193 µM) | CCOCC(=O)N[C@H](C)C(=O)N[C@@H](Cc1ccc(OC)cc1)C(=O)N[C@@H](CC1CCCC1)C(=O)[C@@]1(C)CO1 [Compound C-2021, (S)—N—((S)-3-cyclopentyl-1-((R)-2-methyloxiran-2-yl)-1-oxopropan-2-yl)-2-((R)-2-(2-ethoxyacetamido)propanamido)-3-(4-methoxyphenyl)propanamide]
429 nM | 65.3 nM | 23.5 nM | 195 nM | 84.7 µg/mL (≈ 153 µM) | COc1ccc(C[C@H](NC(=O)[C@H](C)NC(=O)c2cc(C)no2)C(=O)N[C@@H](CC2CCCC2)C(=O)[C@@]2(C)CO2)cc1 [Compound C-2022, N—((S)-1-(((S)-1-(((S)-3-cyclopentyl-1-((R)-2-methyloxiran-2-yl)-1-oxopropan-2-yl)amino)-3-(4-methoxyphenyl)-1-oxopropan-2-yl)amino)-1-oxopropan-2-yl)-3-methylisoxazole-5-carboxamide]
2690 nM | 857 nM | 55.3 nM | 318 nM | 100 µg/mL (≈ 181 µM) | COc1ccc(C[C@H](NC(=O)[C@@H](C)NC(=O)c2cc(C)no2)C(=O)N[C@@H](CC2CCCC2)C(=O)[C@@]2(C)CO2)cc1 [Compound C-2023, N—((R)-1-(((S)-1-(((S)-3-cyclopentyl-1-((R)-2-methyloxiran-2-yl)-1-oxopropan-2-yl)amino)-3-(4-methoxyphenyl)-1-oxopropan-2-yl)amino)-1-oxopropan-2-yl)-3-methylisoxazole-5-carboxamide]
3450 nM | 1360 nM | 64.6 nM | 170 nM | 126 µg/mL (≈ 221 µM) | COc1ccc(C[C@H](NC(=O)[C@@H](C)NC(=O)c2cnc(C)s2)C(=O)N[C@@H](CC2CCCC2)C(=O)[C@@]2(C)CO2)cc1 [Compound C-2026, N—((R)-1-(((S)-1-(((S)-3-cyclopentyl-1-((R)-2-methyloxiran-2-yl)-1-oxopropan-2-yl)amino)-3-(4-methoxyphenyl)-1-oxopropan-2-yl)amino)-1-oxopropan-2-yl)-2-methylthiazole-5-carboxamide]
3600 nM | 2130 nM | 470 nM | 618 nM | 753 µg/mL (≈ 1380 µM) | COc1ccc(C[C@H](NC(=O)[C@H](C)NC(=O)CC(C)(C)O)C(=O)N[C@@H](CC2CCCC2)C(=O)[C@@]2(C)CO2)cc1 [Compound C-2027, N—((S)-1-(((S)-1-(((S)-3-cyclopentyl-1-((R)-2-methyloxiran-2-yl)-1-oxopropan-2-yl)amino)-3-(4-methoxyphenyl)-1-oxopropan-2-yl)amino)-1-oxopropan-2-yl)-3-hydroxy-3-methylbutanamide]
1160 nM | 323 nM | 11.9 nM | 75.7 nM | 776 µg/mL (≈ 1420 µM) | COc1ccc(C[C@H](NC(=O)[C@@H](C)NC(=O)CC(C)(C)O)C(=O)N[C@@H](CC2CCCC2)C(=O)[C@@]2(C)CO2)cc1 [Compound C-2028, N—((R)-1-(((S)-1-(((S)-3-cyclopentyl-1-((R)-2-methyloxiran-2-yl)-1-oxopropan-2-yl)amino)-3-(4-methoxyphenyl)-1-oxopropan-2-yl)amino)-1-oxopropan-2-yl)-3-hydroxy-3-methylbutanamide]
2130 nM | 785 nM | 71.7 nM | 315 nM | 286 µg/mL (≈ 502 µM) | COc1ccc(C[C@H](NC(=O)[C@@H](CO)NC(=O)c2cc(C)no2)C(=O)N[C@@H](CC2CCCC2)C(=O)[C@@]2(C)CO2)cc1 [Compound C-2030, N—((R)-1-(((S)-1-(((S)-3-cyclopentyl-1-((R)-2-methyloxiran-2-yl)-1-oxopropan-2-yl)amino)-3-(4-methoxyphenyl)-1-oxopropan-2-yl)amino)-3-hydroxy-1-oxopropan-2-yl)-3-methylisoxazole-5-carboxamide]
26700 nM | 18300 nM | 763 nM | 1450 nM | 41.7 µg/mL (≈ 75.7 µM) | COc1ccc(C[C@H](NC(=O)[C@@H](C)NC(=O)c2ccccn2)C(=O)N[C@@H](CC2CCCC2)C(=O)[C@@]2(C)CO2)cc1 [Compound C-2031, N—((R)-1-(((S)-1-(((S)-3-cyclopentyl-1-((R)-2-methyloxiran-2-yl)-1-oxopropan-2-yl)amino)-3-(4-methoxyphenyl)-1-oxopropan-2-yl)amino)-1-oxopropan-2-yl)picolinamide]
– | 7.9 nM | 5.2 nM | – | 10.7 µg/mL (≈ 17 µM) | COc1ccc(C[C@H](NC(=O)[C@@H](NC(=O)OCc2ccccc2)C2(O)CC2)C(=O)N[C@@H](Cc2ccccc2)C(=O)[C@@]2(C)CO2)cc1 [Compound C-2046, Benzyl ((S)-1-(1-hydroxycyclopropyl)-2-(((S)-3-(4-methoxyphenyl)-1-(((S)-1-((R)-2-methyloxiran-2-yl)-1-oxo-3-phenylpropan-2-yl)amino)-1-oxopropan-2-yl)amino)-2-oxoethyl)carbamate]
– | 3320 nM | 4550 nM | – | 1230 µg/mL (≈ 2420 µM) | COc1ccc(C[C@H](NC(=O)[C@]2(C)CCC(=O)N2)C(=O)N[C@@H](Cc2ccccc2)C(=O)[C@@]2(C)CO2)cc1 [Compound C-3011, (S)—N—((S)-3-(4-methoxyphenyl)-1-(((S)-1-((R)-2-methyloxiran-2-yl)-1-oxo-3-phenylpropan-2-yl)amino)-1-oxopropan-2-yl)-2-methyl-5-oxopyrrolidine-2-carboxamide]
